Test results from PubChem BioAssay (NCI).
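Step 1: Grow cells in 96-well plates. Step 2: Expose to compound for 48 hours at 5 concentrations. Step 3: Interpolate endpoints linearly; if unreached, use highest concentration. GI50: concentration for 50% inhibition of growth. TGI: concentration producing complete growth inhibition.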 *1 amine or outer side, *2 acyl side, *3 side chain or, on linkers, in order; H or OH if unused. Where a SMILES comes first, the peptide text is derived from it. Bridges are numbered along the chain shown (N, C = ends). Roman numbers before positions name the chains, in order. [ ]: non-standard residue; d: D form. Actinocin(9to1) = Cc1c2oc3c(C)ccc(C(=O)[*:1])c3nc-2c(C(=O)[*:2])c(N)c1=O; NMeV = CN[CH](C(=O)O)C(C)C; Sar = CNCC(=O)O

Tests used:
Test in all cases: inhibition of tumour cell growth, NCI panel, 48 h
M14 melanoma = test system: M14 melanoma
K-562 leukemia = test system: K-562 leukemia
SF-295 CNS = test system: SF-295 CNS
A549 NSCLC = test system: A549 NSCLC
SW-620 colon = test system: SW-620 colon
OVCAR-4 ovarian = test system: OVCAR-4 ovarian
HOP-62 NSCLC = test system: HOP-62 NSCLC
NCI-H226 lung = test system: NCI-H226 lung
MALME-3M melanoma = test system: MALME-3M melanoma
SNB-75 CNS = test system: SNB-75 CNS
OVCAR-8 ovarian = test system: OVCAR-8 ovarian
U251 CNS = test system: U251 CNS
NCI/ADR-RES ovarian = test system: NCI/ADR-RES ovarian
SF-268 CNS = test system: SF-268 CNS
MCF7 breast = test system: MCF7 breast
NCI-H23 lung = test system: NCI-H23 lung
HL-60(TB) leukemia = test system: HL-60(TB) leukemia

| SMILES | TGI (M14 melanoma) [µM] | TGI (K-562 leukemia) [µM] | TGI (SF-295 CNS) [µM] | TGI (A549 NSCLC) [µM] | TGI (SW-620 colon) [µM] | TGI (OVCAR-4 ovarian) [µM] | TGI (HOP-62 NSCLC) [µM] | TGI (NCI-H226 lung) [µM] | TGI (MALME-3M melanoma) [µM] | TGI (SNB-75 CNS) [µM] | TGI (OVCAR-8 ovarian) [µM] | TGI (U251 CNS) [µM] | TGI (NCI/ADR-RES ovarian) [µM] | TGI (SF-268 CNS) [µM] | TGI (MCF7 breast) [µM] | TGI (NCI-H23 lung) [µM] | TGI (HL-60(TB) leukemia) [µM] | GI50 (HL-60(TB) leukemia) [µM] |
| --- | --- | --- | --- | --- | --- | --- | --- | --- | --- | --- | --- | --- | --- | --- | --- | --- | --- | --- |
| O=C1c2ccccc2-n2nnnc2C2CSCN12 (stereo not drawn) | > 100 | > 100 | > 100 | > 100 | > 100 | > 100 | > 100 | > 100 | > 100 | > 100 | > 100 | > 100 | > 100 | > 100 | > 100 | – | – | – |
| CC(=O)CC1CCC(=O)/C=C/C(=O)OC(CC(C)=O)CCC(=O)/C=C/C(=O)O1 (stereo not drawn) | 10.6 | > 20.9 | 18.4 | 43 | 3.65 | 25.4 | 42.8 | 61.3 | 6.72 | 28.8 | 53.5 | 42.8 | 53.2 | 74 | 27.6 | 36.4 | – | – |
| CON(C)C(=O)C(C)N(Cc1ccccc1)Cc1ccccc1 (stereo not drawn) | > 100 | > 100 | > 100 | > 100 | > 100 | – | > 100 | > 100 | > 100 | > 100 | > 100 | > 100 | > 100 | > 100 | > 100 | > 100 | > 100 | – |
| CC1=NN(c2nc(N)nc(COc3ccc(N)cc3)n2)C(C)(C)C1 | > 100 | > 100 | > 100 | – | > 100 | > 100 | > 100 | > 100 | – | > 100 | > 100 | > 100 | > 100 | > 100 | > 100 | > 100 | > 100 | – |
| COC(=O)CC(C)(NS(=O)c1ccc(C)cc1)c1ccccc1 (stereo not drawn) | – | > 100 | > 100 | > 100 | > 100 | > 100 | > 100 | > 100 | > 100 | – | – | > 100 | > 100 | > 100 | > 100 | > 100 | > 100 | – |
| Cc1ccc(Nc2nc(NNC(=O)Cc3ccccc3)nc(NNC(=O)c3ccncc3)n2)cc1 | > 10 | > 10 | – | > 10 | > 10 | > 10 | > 10 | – | > 10 | > 10 | > 10 | > 10 | > 10 | > 10 | > 10 | > 10 | > 10 | – |
| Nc1nc(Cl)cc(OCC2(CO)CC=CC2)n1 | – | > 100 | > 100 | > 100 | > 100 | > 100 | > 100 | > 100 | > 100 | > 100 | > 100 | > 100 | > 100 | > 100 | > 100 | > 100 | > 100 | – |
| Cc1c2oc3c(C)ccc(C(=O)NC4C(=O)NC(C(C)C)C(=O)N5CCCC5C(=O)N(C)CC(=O)N(C)C(C(C)C)C(=O)OC4C)c3nc-2c(C(=O)NC2C(=O)NC(C(C)C)C(=O)N3CCCC3C(=O)N(C)CC(=O)N(C)C(C(C)C)C(=O)OC2C)c(N)c1=O (stereo not drawn) (I: TVP[Sar][NMeV] / II: TVP[Sar][NMeV]; ester I:1-I:C, II:1-II:C; linker I:N-II:N via Actinocin(9to1); configuration not given here) | 0.0207 | – | 0.0687 | > 0.867 | 0.105 | 0.00187 | 0.00696 | – | 0.0145 | 0.000907 | 0.00772 | – | > 1 | 0.0269 | 0.00342 | 0.00481 | 0.0237 | 0.000288 |
| Cc1ccc(S[C@@H](C)[C@@](O)(CF)CN(Cc2ccccc2)C(=O)C(F)(F)F)cc1 | 31.7 | – | – | 32.1 | 75.2 | 34.2 | – | – | 44.2 | – | > 100 | 35.3 | 69.5 | > 100 | 58.2 | 56.7 | 46.2 | – |
| COc1ccc(S(=O)(=O)n2c3c(c4ccccc42)[C@@H]2[C@@H](CCCN2C(=O)CS(=O)c2ccc(C)cc2)[C@H](Cl)C3)cc1 (stereo partly drawn) | > 100 | > 100 | > 100 | > 100 | > 100 | – | > 100 | > 100 | > 100 | > 100 | > 100 | > 100 | > 100 | > 100 | > 100 | > 100 | > 100 | – |
| Cc1ccc(C(=O)OC(C(=O)O)C(OC(=O)c2ccc(C)cc2)C(=O)O)cc1 (stereo not drawn) (tested in a mixture with another compound) | – | 7.87 | 16.7 | 22.3 | 10.2 | 21.6 | 29.2 | 24.8 | 12 | 14.8 | 31.6 | 22.2 | 23 | 28.3 | 11.8 | 12.8 | 4.08 | – |
| C=C1c2nc3ccccc3n2C=C(c2ccc(OC)cc2)N1c1ccc(OC)cc1 | > 100 | > 100 | 32.6 | > 100 | > 100 | > 100 | – | 43.1 | 48.4 | 30.6 | 24.4 | 28.4 | 31.8 | – | > 100 | 78.2 | > 100 | – |
| NC(Cc1ccccc1)C(=O)NC(Cc1ccccc1)NC(=O)C(Cc1c[nH]c2ccccc12)C(=O)O (stereo not drawn) | > 100 | – | > 100 | > 100 | > 100 | > 100 | > 100 | > 100 | > 100 | > 100 | > 100 | > 100 | > 100 | > 100 | > 100 | > 100 | > 100 | – |
| O=S(=O)(O)c1cc(N=Nc2c(O)ccc3ccccc23)cc2c(S(=O)(=O)O)cccc12 | > 100 | > 100 | > 100 | > 100 | > 100 | > 100 | > 100 | > 100 | > 100 | > 100 | > 100 | > 100 | > 100 | > 100 | > 100 | – | > 100 | – |
